Measured values taken from US6649615B2, “Method for inhibiting fibrogenesis” (Institute National de la Sante et de la Recherche Medicale …, priority 2002, dated 2003).
Where “and” joins values, the source holds several entries; their conditions need not be identical. Identical values can stand only once. Entries after “also recorded” stand apart in the source; their conditions may differ.

Legend:
type I collagen mRNA = experiment: Liver type I collagen transcripts (quantitative RT-PCR, in situ hybridization); assay type: in vivo, rat; conditions: 6 weeks
Method: In situ hybridization was performed on frozen sections according to a protocol described earlier, using [α^33P]UTP labeled riboprobes (Faouzi et al., 1999). The probe used was a 900 bp fragment of the rat α2(I) collagen cDNA, (Genovese et aL, 1984). The cDNA was subcloned into the pGEM5Z f(+) vector. Antisense and sense probes were generated by in vitro transcription. Their size was reduced to ˜250 nt by alkaline hydrolysis.
Total RNA was prepared from liver samples by the method of Chomczynski and Sacchi (1987), modified as described by Puissant and Houdebine (1990).
Type I collagen specific transcripts were quantified by a technique of quantitative RT-PCR, that has previously been described in detail (Bieche et al., 2000). Each sample was normalized on the basis of its expression of the RPLPO gene (also known as 36B4, encoding human acidic ribosomal phosphoprotein P0).

[1] = test system: liver norepinephrin stores; experiment: Liver catecholamine (norepinephrin) content by HPLC with electrochemical detection; assay type: in vivo, rat; conditions: for Norepinephrin content in liver: 2 weeks, mean ± 1 SD; for decrease in the liver norepinephrin content: OHDA 2 weeks
Method: (§1) Sympathetic chemical denervation was performed with OHDA (Sigma). OHDA was freshly prepared in saline containing 0.4% (w/v) ascorbic acid (Sigma). OHDA was administered intraperitoneally, twice a week on 2 consecutive days (Monday and Tuesday) at the dose of 25 mg/kg body weight. The first injection was given 4 to 6 hours before the first administration of CCl4. Control animals for OHDA received only the solvent.
(§2) Thus, 4 groups including each 6 animals could be distinguished. Group I: olive oil and saline alone; group II: olive oil and OHDA alone; group III: CCl4 with saline; group IV: CCl4 with OHDA. These animals were treated for 2 weeks. In another series of experiments, animals were similarly treated for 6 weeks. In that case, both control groups included only 3 animals.
Extraction was performed on liver homogenates (10% w/v, in 0.05 M ice-cold Tris-HCl buffer at pH 7.4) according to the method of Smedes et al. using […] as internal standard (Smedes et al., 1982). Extracts were analyzed by HPLC with electrochemical detection.

[2] = test system: CCl4-induced liver fibrosis; experiment: CCl4-induced liver fibrosis in rats, fibrosis area by Picro Sirius red image analysis; assay type: in vivo, rat; conditions: for area of fibrosis (% of field area): control 0.63±0.06%
Method: (§3) All experiments were carried out using accepted ethical guidelines. Male Wistar rats (Charles River, St Aubin-les-Elbeuf, France) weighing 200-250 g were used in this study. The animals had free access to food and drinking water. Fibrosis was induced by giving CCl4 (Sigma, St Quentin-Fallavier, France) mixed with olive oil (1vol: 5vol.) at 0.375 ml/kg body weight by gavage, three times a week, on Monday, Wednesday and Friday. Control animals for CCl4 received only olive oil.
as §1, §2
Finally, other animals were treated with the specific α1-adrenergic receptor antagonist prazosin (Sigma), given in drinking water daily at a dose of 50 mg/l during 2 weeks. Group V animals received CCl4 alone, while group VI received CCl4 with prazosin. Both groups included 6 animals.
At the designated time points, the animals were sacrificed. Liver samples were taken from several lobes and either snap frozen in liquid nitrogen, cryopreserved in OCT compound (Sakura, Torrance, Calif.) and snap-frozen in liquid nitrogen-cooled isopentane, or fixed in buffered formalin.
This was done on formalin-fixed, paraffin-embedded sections stained with Picro Sirius red, using image analysis. All samples from a series of experiments were stained simultaneously. Quantitative data were obtained using a computerized image analysis system (Biocom 500, Les Ulis, France) including a personal computer (DESK PRO, Compaq, Houston, Tex.), a CCD video camera (Sony, Japan) and a Zeiss microscope (Jena, Germany). Sampling corresponded to 3 sections from 3 different lobes. The analysis was performed on an average of 50 fields per section using the ×4 objective. The whole surface of the sections was used for analysis with the exception of large centrolobular veins (diameter ≧150 μm) and large portal tracts. Fibrosis deposition was expressed as a percentage of stained areas on the total measured area.
Interassay variation was calculated in preliminary experiments and found to be 1.4%. When the percentage of reduction in areas of fibrosis consecutive to treatments was calculated, control values were first substracted.

[3] = Vital parameters and liver function tests after 2 weeks of treatment; assay type: in vivo, rat; conditions: for Bilirubin / ALAT / ASAT / Alkaline phosphatase / LW/BW ratio (X100) / Liver weight / Body weight: 2 weeks; for Bilirubin / ALAT / ASAT / Alkaline phosphatase: serum
Method: as §3, §1, §2
Serum samples were also collected.

[4] = test system: CCl4-induced hepatocyte necrosis; experiment: Acute toxicity of CCl4: liver function tests and area of necrosis
Method: Routine liver function blood tests (bilirubin, alkaline phosphatase and transaminases) were performed on an automated analyzer.
Thus, groups of animals treated with 2 administrations of CCl4 with or without 2 injections of OHDA were sacrificed 24 hours after the second CCl4 treatment and evaluated for acute toxicity of CCl4 by serum tests and measurement of the area of necrosis on liver sections.
The percentage of necrosis area was determined on hematoxylin and eosin stained sections by image analysis.

TIMP-1 mRNA = experiment: Liver TIMP-1 mRNA by Northern blot (TIMP-1/GAPDH ratio); assay type: in vivo, rat
Method: […] The blot was then stripped and rehybridized with a rat GAPDH (glyceraldehyde-3-phosphate dehydrogenase) probe.
[…] of total RNA extracted from rat liver was analyzed by Northern blot. RNAs were separated on a 0.8% agarose gel containing ethidium bromide in MOPS buffer. Running buffer and gel contained 0.2 M formaldehyde. The RNAs were transferred onto a positively charged nylon membrane (Amersham, Orsay, France) by downward capillary transfer in running buffer. Examination of the stained membrane under UV light was used to confirm the quality of loading and transfer. A rat TIMP-1 cDNA probe was labeled with [α^32P]dCTP by random priming using the Ready-to-go kit from Roche (Meylan, France). Hybridization was performed using the Ultrahyb solution (Ambion, Austin, Tex.). The blots were washed in stringent conditions (0.1×SSC, 0.1% SDS at 65° C.). To further confirm the loading and transfer accuracy, blots were rehybridized with a rat GAPDH cDNA probe (Fort et al., 1985). The signals were quantified with the Kodak 1 D Image Analysis Software (Eastman Kodak Company, Rochester, N.Y.). Results are presented as TIMP-1/GAPDH ratios.

## NCCc1cc(O)c(O)cc1O [OHDA, 6-hydroxydopamine]
Type I collagen mRNA; CCl4 together with OHDA, CCl4 alone 477.2±91.0, control 16.0±5.9
  type I collagen mRNA level (quantitative RT-PCR): 364.5±68.7 arbitrary units
Type I collagen mRNA; CCl4 with OHDA vs CCl4 only
  decrease in type I collagen mRNA level: 24%
[1]; CCl4 + OHDA (group IV), CCl4 alone group III 29.1 ± 10.6
  Norepinephrin content in liver: 3.6 ± 1.5 ng/g of wet liver tissue
[1]; CCl4-treated animals
  decrease in the liver norepinephrin content: 87.6%
[1]; OHDA alone (group II), 25 mg/kg i.p. twice a week, saline group I 47.6 ± 9.9
  Norepinephrin content in liver: 6.0 ± 3.2 ng/g of wet liver tissue
[1]; non CCl4-treated animals
  decrease in the liver norepinephrin content: 87.4%
[2]; CCl4 with OHDA (group IV), 2 weeks, CCl4 alone 2.86±0.78%
  area of fibrosis (% of field area): 1.54±0.29%
[2]; CCl4 with OHDA, 6 weeks, CCl4 alone 18.82±1.79%
  area of fibrosis: 12.38±1.89%
[2]; OHDA alone (group II), 2 weeks
  area of fibrosis (% of field area): 0.61±0.08%
[2]; OHDA alone, 6 weeks
  area of fibrosis: 0.47±0.03%
[2]; OHDA with CCl4 vs CCl4 alone, 2 weeks, control values subtracted
  reduction in the area of fibrosis: 60% and 60.2%
[2]; OHDA with CCl4 vs CCl4 alone, 6 weeks
  decrease of fibrosis area: 36%
[3]; CCl4 with OHDA (group IV), CCl4 alone 3.2 ± 0.7
  Bilirubin: 5.0 ± 1.4 μM.I^−1
[3]; CCl4 with OHDA (group IV), CCl4 alone 130 ± 98
  ALAT: 97 ± 37 IU.I^−1
[3]; CCl4 with OHDA (group IV), CCl4 alone 173 ± 82
  ASAT: 137 ± 29 IU.I^−1
[3]; CCl4 with OHDA (group IV), CCl4 alone 276 ± 53
  Alkaline phosphatase: 225 ± 58 IU.I^−1
[3]; CCl4 with OHDA (group IV), CCl4 alone 4.6 ± 0.7
  LW/BW ratio (X100): 4.1 ± 0.6
[3]; CCl4 with OHDA (group IV), CCl4 alone 13.7 ± 1.7
  Liver weight: 12.5 ± 1.0 g
[3]; CCl4 with OHDA (group IV), CCl4 alone 298 ± 12
  Body weight: 293 ± 6 g
[3]; OHDA alone (group II)
  gross toxic effects of prolonged treatment: No gross toxic effects
  histologic aspect of the livers: strictly normal
[3]; OHDA alone (group II), saline 4.5 ± 1.4
  Bilirubin: 2.3 ± 0.5 μM.I^−1
[3]; OHDA alone (group II), saline 43 ± 4
  ALAT: 50 ± 6 IU.I^−1
[3]; OHDA alone (group II), saline 120 ± 9
  ASAT: 94 ± 18 IU.I^−1
[3]; OHDA alone (group II), saline 178 ± 48
  Alkaline phosphatase: 274 ± 46 IU.I^−1
[3]; OHDA alone (group II), saline 3.7 ± 0.2
  LW/BW ratio (X100): 4.4 ± 0.2
[3]; OHDA alone (group II), saline 12.9 ± 1.0
  Liver weight: 16.0 ± 1.1 g
[3]; OHDA alone (group II), saline 344 ± 17
  Body weight: 365 ± 14 g
[4]; CCl4 + OHDA, 96 hs, hematoxylin and eosin sections, CCl4 alone 4.6 ± 2.3
  Necrosis area: 3.3 ± 1.0%
[4]; CCl4 + OHDA, 96 hs, CCl4 alone 269 ± 117
  ALAT: 221 ± 71 IU.I^−1
[4]; CCl4 + OHDA, 96 hs, CCl4 alone 314 ± 111
  Alkaline phosphatase: 240 ± 117 IU.I^−1
[4]; CCl4 + OHDA, 96 hs, CCl4 alone 452 ± 152
  ASAT: 342 ± 62 IU.I^−1
[4]; co-treatment with CCl4 vs CCl4 alone
  effect on the acute toxicity of CCl4 (biological tests and necrosis area): no statistically significant difference
TIMP-1 mRNA; CCl4 with OHDA (group IV), 2 weeks
  effect on CCl4-induced increase of liver TIMP-1 mRNA (TIMP-1/GAPDH ratio): abrogated; also recorded: normalization of the TIMP-1/GAPDH ratio back to control values
TIMP-1 mRNA; CCl4 with OHDA, 6 weeks
  effect on CCl4-induced increase of liver TIMP-1 mRNA: greatly reduced
TIMP-1 mRNA; CCl4 with OHDA, 6 weeks, all animals, not statistically significant
  reduction in the TIMP-1/GAPDH ratio: 45%
TIMP-1 mRNA; CCl4 with OHDA, 6 weeks, one animal with very high value removed, p=0.05
  reduction in the TIMP-1/GAPDH ratio: 57%
